In ChEMBL document CHEMBL5113529, “Design, Synthesis, and Biological Evaluation of Dual-Target COX-2/CYP51 Inhibitors for the Treatment of Fungal Infectious Diseases” (J Med Chem, 2022):
Active and inactive are the calls of the source. The rule behind the calls is not given here.

How the values were obtained:
Candida albicans [1] = assay: Induction of morphological changes in Candida albicans ATCC SC5314 assessed as ribosome abscission measured for 48 to 72 hrs by transmission electron microscopic analysis; format: functional, organism-based; details: time 48-72 hrs
Candida albicans [2] = assay: Induction of morphological changes in Candida albicans ATCC SC5314 assessed as cell leakage measured for 96 hrs by transmission electron microscopic analysis; format: functional, organism-based
Candida albicans [3] = assay: Induction of morphological changes in Candida albicans ATCC SC5314 assessed as disappearance of nucleus measured for 48 to 72 hrs by transmission electron microscopic analysis; format: functional, organism-based; details: time 48-72 hrs
Candida albicans [4] = assay: Antifungal activity against fluconazole- resistant Candida albicans 17# assessed as fungal growth inhibition measured after 72 hrs in presence of naproxen by double dilution method; format: functional
Candida albicans [5] = assay: Antifungal activity against fluconazole- resistant Candida albicans 632 assessed as fungal growth inhibition measured after 72 hrs in presence of naproxen by double dilution method; format: functional
Mus musculus [6] = organism: Mus musculus; assay: Antiinflammatory activity in mouse infected with Candida albicans ATCC SC5314 assessed as reduction in COX-2 expression in spleen in presence of naproxen by hematoxylin staining based inverted microscopic analysis; format: functional
Candida albicans [7] = assay: Antifungal actvity against Candida albicans ATCC SC5314 infected in mouse assessed as reduction in infection at 10 ug per 20 g, ip administered on day 2, 4, 6, 8, 10 and 12 and measured on day 14 in presence of naproxen; format: functional, organism-based; details: time 14.0 day
Mus musculus [8] = organism: Mus musculus; assay: Immunostimulatory activity in mouse infected with Candida albicans ATCC SC5314 assessed as reduction in PD-L1 expression in spleen in presence of naproxen by western blot analysis relative to control; format: functional; design: scale not given: the % may be the effect or the level left
[9] = Toxicity in mouse infected with Candida albicans assessed as BUN level in plasma at 10 ug per 20 g, ip administered on day 2, 4, 6, 8, 10 and 12 and measured on day 14 in presence of naproxen (reference value: 8.2 +/- 0.5 mmol/L); format: organism-based; details: in vivo, 336 h, dose 10 µg, time 14 day
[10] = Toxicity in mouse infected with Candida albicans assessed as ALT level in plasma at 10 ug per 20 g, ip administered on day 2, 4, 6, 8, 10 and 12 and measured on day 14 in presence of naproxen (reference value: 43.6 +/- 4.4 IU/L); format: organism-based; details: in vivo, 336 h, dose 10 µg, time 14 day
Aspergillus fumigatus = assay: Antifungal activity against Aspergillus fumigatus KM8001 assessed as fungal growth inhibition measured after 72 hrs in presence of naproxen by double dilution method; format: functional

SMILES	Activity (Candida albicans [1])	Activity (Candida albicans [2])	Activity (Candida albicans [3])	MIC50 (Candida albicans [4]) [µg/mL]	MIC50 (Candida albicans [5]) [µg/mL]	Activity (Mus musculus [6]) [a.u.]	Activity (Candida albicans [7])	Activity (Mus musculus [8]) [%]	Activity [9] [IU/L]	Activity [10] [IU/L]	MIC50 (Aspergillus fumigatus) [µg/mL]
COc1ccc2cc([C@H](C)C(=O)NC(Cn3cncn3)C(=O)c3ccccc3)ccc2c1 (stereo partly specified)	Active	Active	Active								
OC(Cn1cncn1)(Cn1cncn1)c1ccc(F)cc1F [FLUCONAZOLE]				4	4	55.7	Active	14.27	9.5	42.6	4
